{
  "source": "patent US11351260B2",
  "about": "“Photocleavable cobalt-nitrosyl complex and nitric oxide carrier containing the same” (DAEGU GYEONGBUK INSTITUTE OF SCIENCE AND TECHNOLOGY, priority 2019, dated 2022)",
  "tested_on": "EGFR",
  "assay": "EGFR single-particle tracking and diffusion analysis (dark-field, anti-EGFR-AuNP)",
  "type": "cell-based",
  "conditions": "ERK-KTR cells; NOExo treatment (complex of Example 1 + hν) or EGF treatment; untreated control 0.071",
  "source_text": "To confirm whether the activation of ERK by NO generated from the complex of Example 1 was induced by other receptors or membrane features, thus perturbing other signaling pathways, such as the MAPK pathway activated by the […] of EGF receptors (EGFRs) or by nonspecific disturbances caused by the formation of cellular membranes like lipid rafts, individual EGFRs in live cells were tracked, and analyzed.\nTime-lapse dark-field microscope images were taken every 20 ms for 10 s. Lateral diffusion motion of protein was analyzed by particle trajectories. TrackMate plugin on Image J was used for single-particle tracking and trajectory analysis. For each particle, mean square displacement (MSD) was calculated from the x, y position and time information obtained from trajectory analysis; MSD(t)=<(xi+n−xi)^2+(yi+n−yi)^2>. The MSD versus time intervals were plotted up to the time lag (t) equivalent to 1/10th of the trajectory duration, then fitted to a linear equation corresponding to the Brownian motion. Diffusion coefficient (D) was calculated from the slope of the first ten points of the MSD plot; MSD=4Dt.\nFor single-molecule tracking of EGFR, anti-EGFR (EGFR anti-bodies) was conjugated to gold nanoparticles (AuNPs, 50 nm in diameter) using the biotin-neutravidin interaction (FIG. 8A), achieving high specificity (FIG. 8B). […]",
  "data": [
    {"substance": "epidermal growth factor [EGF, reference compound]", "values": [
      {"measurement": "diffusion coefficient of EGFR (DEGFR)", "result": 0.017, "unit": "μm^2 s^−1"}
    ]}
  ]
}
